PMC12951562, “SH2scan: Mapping SH2 Domain-Ligand Binding Selectivity for Inhibitors and Degraders” (Journal of Medicinal Chemistry, 2026)
Like-named read-outs stand apart in the source and are kept apart here. Non-standard residues stand in square brackets, D forms with d. Residues, ends and D or L forms follow the SMILES beside them. *: point of attachment. pY = N[C@@H](Cc1ccc(OP(=O)(O)O)cc1)C(=O)O; Caffeoyl = O=C(/C=C/c1ccc(O)c(O)c1)*

Key:
Experiment in all cases: biochemical
Type in all cases: binding
TNS4 = target: T1, TNS4 (Homo sapiens, UniProt Q8IZW8); details: for remaining activity at 10 µM: read-out: percent of DMSO vehicle control
T1 construct: made in house; host or cells: HEK293 (transient transfection), unpurified extract
T1 sequence (Q8IZW8 19-715): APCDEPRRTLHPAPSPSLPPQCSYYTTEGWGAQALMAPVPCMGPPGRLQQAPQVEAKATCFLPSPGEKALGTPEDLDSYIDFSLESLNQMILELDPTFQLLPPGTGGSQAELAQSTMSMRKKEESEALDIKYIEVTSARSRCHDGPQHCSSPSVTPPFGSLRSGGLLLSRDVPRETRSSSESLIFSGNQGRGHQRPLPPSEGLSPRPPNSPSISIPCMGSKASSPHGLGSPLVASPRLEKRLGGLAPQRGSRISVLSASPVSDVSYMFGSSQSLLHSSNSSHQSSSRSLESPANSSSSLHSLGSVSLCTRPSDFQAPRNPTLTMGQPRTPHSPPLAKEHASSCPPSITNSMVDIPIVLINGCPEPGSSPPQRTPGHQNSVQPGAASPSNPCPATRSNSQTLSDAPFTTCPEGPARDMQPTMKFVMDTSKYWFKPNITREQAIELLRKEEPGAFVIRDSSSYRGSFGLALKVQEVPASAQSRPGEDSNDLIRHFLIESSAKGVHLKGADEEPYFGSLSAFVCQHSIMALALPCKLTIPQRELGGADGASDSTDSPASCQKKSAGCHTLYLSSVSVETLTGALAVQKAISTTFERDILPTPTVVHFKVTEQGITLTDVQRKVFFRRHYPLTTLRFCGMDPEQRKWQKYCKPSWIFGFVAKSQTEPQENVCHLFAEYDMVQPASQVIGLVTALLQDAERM

TNS1 = target: T2, TNS1 (Homo sapiens, UniProt Q9HBL0); details: for percent of DMSO vehicle control at 10 µM / remaining activity at 10 µM: read-out: percent of DMSO vehicle control
T2 construct: made in house; host or cells: HEK293 (transient transfection), unpurified extract
T2 sequence (Q9HBL0 whole entry): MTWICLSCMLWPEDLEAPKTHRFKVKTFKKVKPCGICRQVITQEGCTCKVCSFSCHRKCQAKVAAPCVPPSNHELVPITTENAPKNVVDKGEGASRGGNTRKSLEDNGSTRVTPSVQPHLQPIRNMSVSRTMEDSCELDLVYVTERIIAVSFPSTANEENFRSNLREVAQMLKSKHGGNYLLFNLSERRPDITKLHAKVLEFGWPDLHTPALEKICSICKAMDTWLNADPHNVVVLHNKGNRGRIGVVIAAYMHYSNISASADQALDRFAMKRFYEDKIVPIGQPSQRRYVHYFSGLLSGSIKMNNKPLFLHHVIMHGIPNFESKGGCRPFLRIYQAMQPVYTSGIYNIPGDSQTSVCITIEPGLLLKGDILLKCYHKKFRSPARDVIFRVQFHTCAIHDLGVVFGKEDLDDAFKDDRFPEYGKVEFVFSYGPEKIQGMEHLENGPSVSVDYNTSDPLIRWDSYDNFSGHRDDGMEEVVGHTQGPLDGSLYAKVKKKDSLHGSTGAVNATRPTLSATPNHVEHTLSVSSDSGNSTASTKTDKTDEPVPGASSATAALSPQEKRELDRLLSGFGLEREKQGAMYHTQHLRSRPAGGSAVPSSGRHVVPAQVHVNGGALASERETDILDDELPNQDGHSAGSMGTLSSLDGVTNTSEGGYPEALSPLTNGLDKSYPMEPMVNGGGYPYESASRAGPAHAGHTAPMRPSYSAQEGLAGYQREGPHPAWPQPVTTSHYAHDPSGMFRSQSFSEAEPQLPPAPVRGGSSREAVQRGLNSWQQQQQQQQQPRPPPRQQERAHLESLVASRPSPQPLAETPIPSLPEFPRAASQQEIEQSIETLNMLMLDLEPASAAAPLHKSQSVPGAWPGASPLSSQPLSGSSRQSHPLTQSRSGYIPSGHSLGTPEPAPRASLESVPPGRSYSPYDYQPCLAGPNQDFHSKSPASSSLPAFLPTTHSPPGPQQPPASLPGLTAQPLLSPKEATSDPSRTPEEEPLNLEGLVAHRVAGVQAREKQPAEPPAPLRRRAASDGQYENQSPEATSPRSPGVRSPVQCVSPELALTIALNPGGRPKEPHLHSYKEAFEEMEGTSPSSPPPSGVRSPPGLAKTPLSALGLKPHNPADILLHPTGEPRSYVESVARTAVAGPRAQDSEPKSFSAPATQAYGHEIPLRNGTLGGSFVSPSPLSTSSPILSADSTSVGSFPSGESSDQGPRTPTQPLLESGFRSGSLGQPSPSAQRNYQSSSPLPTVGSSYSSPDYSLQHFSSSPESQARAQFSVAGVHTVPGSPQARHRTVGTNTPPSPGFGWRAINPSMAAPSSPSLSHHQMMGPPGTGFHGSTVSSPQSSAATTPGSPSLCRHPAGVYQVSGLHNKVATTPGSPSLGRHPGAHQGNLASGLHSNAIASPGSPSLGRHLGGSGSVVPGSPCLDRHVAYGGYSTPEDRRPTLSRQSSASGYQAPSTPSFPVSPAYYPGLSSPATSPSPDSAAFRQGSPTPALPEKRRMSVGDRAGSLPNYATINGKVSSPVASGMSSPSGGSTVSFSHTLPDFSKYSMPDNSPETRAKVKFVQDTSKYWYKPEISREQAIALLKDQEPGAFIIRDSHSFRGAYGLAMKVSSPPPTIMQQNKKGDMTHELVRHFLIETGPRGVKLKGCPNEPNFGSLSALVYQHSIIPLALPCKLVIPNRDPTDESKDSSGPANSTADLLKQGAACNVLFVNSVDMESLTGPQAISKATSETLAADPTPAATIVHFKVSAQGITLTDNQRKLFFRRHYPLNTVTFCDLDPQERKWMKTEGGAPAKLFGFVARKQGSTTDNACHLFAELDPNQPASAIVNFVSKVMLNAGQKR

FGR = target: T3, FGR (Homo sapiens, UniProt P09769); details: for remaining activity at 10 µM: read-out: percent of DMSO vehicle control
T3 construct: the DNA-tagged SH2 domain concentrations used in this study were <0.1 nM; made in house; host or cells: HEK293 (transient transfection; unpurified extract)
T3 sequence (P09769 144-241 limits assumed): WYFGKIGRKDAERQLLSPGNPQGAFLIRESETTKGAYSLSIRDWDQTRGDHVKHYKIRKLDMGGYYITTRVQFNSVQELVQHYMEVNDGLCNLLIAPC

SOCS4 = target: T4, SOCS4 (Homo sapiens, UniProt Q8WXH5); details: for remaining activity at 10 µM: read-out: percent of DMSO vehicle control
T4 construct: made in house; host or cells: HEK293 (transient transfection), unpurified extract
T4 sequence (Q8WXH5 1-440): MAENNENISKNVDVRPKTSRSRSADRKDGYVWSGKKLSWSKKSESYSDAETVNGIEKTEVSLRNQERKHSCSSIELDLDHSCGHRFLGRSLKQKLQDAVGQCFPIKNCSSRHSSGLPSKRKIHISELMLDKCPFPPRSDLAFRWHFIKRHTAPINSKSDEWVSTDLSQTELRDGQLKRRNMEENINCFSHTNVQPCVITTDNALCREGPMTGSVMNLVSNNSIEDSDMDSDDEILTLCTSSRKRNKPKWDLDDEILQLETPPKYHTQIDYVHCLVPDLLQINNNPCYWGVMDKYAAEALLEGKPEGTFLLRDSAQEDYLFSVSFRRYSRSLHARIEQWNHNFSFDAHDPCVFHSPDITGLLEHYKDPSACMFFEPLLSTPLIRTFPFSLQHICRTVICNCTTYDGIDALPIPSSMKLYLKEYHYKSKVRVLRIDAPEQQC

MATK = target: T5, MATK (Homo sapiens, UniProt P42679); details: for percent of DMSO vehicle control at 10 µM / remaining activity at 10 µM: read-out: percent of DMSO vehicle control
T5 construct: the DNA-tagged SH2 domain concentrations used in this study were <0.1 nM; made in house; host or cells: HEK293 (transient transfection, unpurified extract)
T5 sequence (P42679 122-211 limits assumed): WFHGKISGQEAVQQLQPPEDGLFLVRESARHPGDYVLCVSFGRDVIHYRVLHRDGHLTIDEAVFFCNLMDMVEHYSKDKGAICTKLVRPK

SHC3 = target: T6, SHC3 (Homo sapiens, UniProt Q92529); details: for remaining activity at 10 µM: read-out: percent of DMSO vehicle control
T6 construct: made in house; host or cells: HEK293 (transient transfection), unpurified extract
T6 sequence (Q92529 1-594): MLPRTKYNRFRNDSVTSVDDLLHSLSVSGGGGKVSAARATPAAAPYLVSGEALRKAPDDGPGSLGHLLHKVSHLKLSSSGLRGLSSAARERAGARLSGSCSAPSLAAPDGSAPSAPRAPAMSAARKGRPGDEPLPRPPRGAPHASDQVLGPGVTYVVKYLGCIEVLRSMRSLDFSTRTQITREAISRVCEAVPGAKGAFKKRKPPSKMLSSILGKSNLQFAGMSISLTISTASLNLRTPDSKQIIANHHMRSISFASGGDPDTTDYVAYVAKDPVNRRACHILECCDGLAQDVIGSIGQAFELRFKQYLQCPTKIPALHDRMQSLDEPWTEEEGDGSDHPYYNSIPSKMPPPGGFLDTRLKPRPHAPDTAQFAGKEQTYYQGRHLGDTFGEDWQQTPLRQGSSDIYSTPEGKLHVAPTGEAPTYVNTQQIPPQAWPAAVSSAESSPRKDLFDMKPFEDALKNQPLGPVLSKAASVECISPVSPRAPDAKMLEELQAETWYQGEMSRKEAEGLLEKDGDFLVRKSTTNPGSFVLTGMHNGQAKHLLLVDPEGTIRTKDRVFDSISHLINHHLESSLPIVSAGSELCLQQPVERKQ

PIK3R3(SH2dom.N-term.) = target: T7, PIK3R3(SH2dom.N-term.) (Homo sapiens, UniProt Q92569); details: for remaining activity at 10 µM: read-out: percent of DMSO vehicle control
T7 construct: SH2dom.N-term. denotes SH2 domain closest to N-terminus of protein; made in house; host or cells: HEK293 (transient transfection, unpurified extract)

Compound	Kd (TNS4) [µM]	Kd (TNS1) [µM]	remaining activity at 10 µM (FGR) [%]	remaining activity at 10 µM (SOCS4) [%]	percent of DMSO vehicle control at 10 µM (MATK) [%]	remaining activity at 10 µM (SHC3) [%]	remaining activity at 10 µM (PIK3R3(SH2dom.N-term.)) [%]	remaining activity at 10 µM (TNS4) [%]	percent of DMSO vehicle control at 10 µM (TNS1) [%]	remaining activity at 10 µM (FGR; primary screen, 10 μM) [%]	Kd (SOCS4; dose-response, read-out: KD) [µM]	remaining activity at 10 µM (SOCS4; primary screen, 10 μM) [%]	remaining activity at 10 µM (MATK; primary screen, 10 μM) [%]	remaining activity at 10 µM (SHC3; primary screen, 10 μM) [%]	remaining activity at 10 µM (PIK3R3(SH2dom.N-term.); primary screen, 10 μM) [%]	KD (TNS4; dose-response)	remaining activity at 10 µM (TNS4; primary screen, 10 μM) [%]	remaining activity at 10 µM (TNS1; primary screen, 10 μM) [%]	also measured
CC[C@H](C)[C@H](NC(=O)[C@H](CO)NC(=O)[C@H](CC(C)C)NC(=O)[C@H](CCCNC(=N)N)NC(=O)[C@H](CO)NC(=O)[C@H](CS)NC(C)=O)C(=O)N[C@@H](Cc1ccc(OP(=O)(O)O)cc1)C(=O)N[C@@H](CC(=O)O)C(=O)N[C@@H](CC(N)=O)C(=O)N[C@H](C(=O)N1CCC[C@H]1C(=O)NCC(N)=O)C(C)C [Ac-CSRLSIpYDNVPG-NH2] (Ac-CSRLSI[pY]DNVPG-NH2)	0.0283 ± 0.00496	1.35 ± 0.53	–	–	–	–	–	–	–	–	–	–	–	–	–	–	–	–	–
CC[C@H](C)[C@H](NC(=O)[C@H](CCC(=O)O)NC(=O)[C@H](CCC(=O)O)NC(=O)[C@H](Cc1ccc(OP(=O)(O)O)cc1)NC(C)=O)C(=O)N[C@@H](CCC(=O)O)C(N)=O [Ac-pYEEIE-NH2] (Ac-[pY]EEIE-NH2)	–	–	–	–	–	–	–	–	–	–	–	–	–	–	–	–	–	–	percent of DMSO vehicle control (FGR; primary screen, 10 μM): 49.9±0.9%; percent of DMSO vehicle control (SOCS4; primary screen, 10 μM): 32.2%; percent of DMSO vehicle control (MATK; primary screen, 10 μM): 197.1%; percent of DMSO vehicle control (SHC3; primary screen, 10 μM): 98.9±6.8%; percent of DMSO vehicle control (PIK3R3(SH2dom.N-term.); primary screen, 10 μM): 85.7%; percent of DMSO vehicle control (TNS4; primary screen, 10 μM): 61.9±0.0%; percent of DMSO vehicle control (TNS1; primary screen, 10 μM): 161.1%
CC(=O)N[C@@H](Cc1ccc(CP(=O)(O)O)cc1)C(=O)NC1(C(=O)N[C@@H](CC(N)=O)C(=O)NCCCc2c(O)ccc3ccccc23)CCCCC1 [CGP78850]	0.508	0.408	43.3 ± 1.3	101 ± 1.6	153 ± 7.1	29.2 ± 2.8	111 ± 10.3	5 ± 1.1	16.4 ± 0.3	–	–	–	–	–	–	–	–	–	Kd (SHC3): 1.8 ± 0.24 µM
CC[C@H](C)[C@H](NC(=O)[C@H](CCC(=O)O)NC(=O)[C@H](CCC(=O)O)NC(=O)[C@H](Cc1ccc(OP(=O)(O)O)cc1)NC(=O)/C=C/c1ccc(O)c(O)c1)C(=O)N[C@@H](CCC(=O)O)C(=O)O [Caffeic acid-pYEEIE] (Caffeoyl-[pY]EEIE-OH)	2.6 ± 0.74	3.8 ± 0.61	0	2.5 ± 0.1	83.8 ± 3.5	0	0.6	3.1 ± 0.7	25.5 ± 1.1	–	–	–	–	–	–	–	–	–	Kd (FGR): 0.0027 ± 0.0053 µM; Kd (SOCS4): 1.5 ± 0.81 µM; Kd (SHC3): 0.13 ± 0.12 µM; Kd (PIK3R3(SH2dom.N-term.)): 0.15 ± 0.02 µM
O=C(CCl)Nc1cccc(CNC(=O)[C@H](Cc2ccc(OP(=O)(O)O)cc2)NC(=O)Cc2ccc(F)cc2)c1 [MN551]	–	–	–	–	–	–	–	–	–	49.8	0.064	9.6 ± 3.9	60.4 ± 2.8	91.2 ± 1.9	97.7	No Hit	25.9	134	–
NC(=O)CC[C@H](NC(=O)[C@@H]1CC[C@@H]2CCN(C(=O)CCCCCC#Cc3cccc4c3CN(C3CCC(=O)NC3=O)C4=O)C[C@H](NC(=O)c3cc4cc(C(F)(F)P(=O)(O)O)ccc4[nH]3)C(=O)N21)C(=O)NC(c1ccccc1)c1ccccc1 (stereo partly shown) [SD-36]	–	–	82 ± 28	30 ± 17.2	159 ± 5.1	74.5 ± 0.8	111 ± 7.3	58.1 ± 8.9	112.9 ± 1	–	–	–	–	–	–	–	–	–	Kd (SOCS4; dose-response): 5.9 µM
CC(=O)N1CC[C@H]2CC[C@@H](C(=O)N[C@@H](CCC(N)=O)C(=O)NC(c3ccccc3)c3ccccc3)N2C(=O)[C@@H](NC(=O)c2cc3cc(C(F)(F)P(=O)(O)O)ccc3[nH]2)C1 [SI-109]	–	–	128	123	163	122	142	110	152	–	–	–	–	–	–	–	–	–	–
C/C(=C\C(=O)N[C@H](C(=O)N1CCC[C@H]1C(=O)N(c1ccccc1)c1ccc(I)cc1)C(C)(C)C)c1ccc(OP(=O)(O)O)cc1 [STAT6-IN-1]	–	–	–	–	–	–	–	–	–	20.7 ± 23.8	0.013	0	6.5 ± 1.8	35.3 ± 4.8	48.3 ± 1.7	–	14 ± 3.4	87.6 ± 10	Kd (FGR; dose-response, read-out: KD): 2.3 ± 0.55 µM; Kd (MATK; dose-response, read-out: KD): 3 ± 0.49 µM; Kd (SHC3; dose-response, read-out: KD): 3.6 ± 0.57 µM; Kd (TNS4; dose-response, read-out: KD): 1.8 ± 0.42 µM
CC(C)(C)[C@H](NC(=O)/C=C/c1ccc(OP(=O)(O)O)cc1)C(=O)N1CCC[C@H]1C(=O)N(c1ccccc1)c1ccc(I)cc1 [STAT6-IN-3]	–	–	–	–	–	–	–	–	–	32.1 ± 40.1	0.01	0	70.3 ± 45.8	50.6 ± 6.4	85.8 ± 16.7	No Hit	21.6 ± 25.3	88.4 ± 24.5	KD (FGR; dose-response): No Hit
O=C(COc1ccc2cc(C(=O)Nc3ccccc3)ccc2c1)NCc1ccc(OP(=O)(O)O)c(OP(=O)(O)O)c1 [Stafib-1]	–	–	–	–	–	–	–	–	–	34.3	3.9 ± 0.87	25.5 ± 12.4	59.9 ± 60.2	87 ± 14.4	105	No Hit	32.7	132	KD (FGR; dose-response): No Hit
